Source: patent publication US9624179B1, “Quinazoline derivative Lu1501 and preparing method and application thereof” (NANJING GENERAL HOSPITAL OF NANJING MILITARY REGION OF PLA, priority 2015, dated 2017)
Like-named read-outs stand apart in the source and are kept apart here.

How the values were obtained:
Format in all cases: cell-based
[1] = test system: U-87 MG (human astrocytoma); assay: MTT inhibition of proliferation, U-87 MG; conditions: 48 h, read-out: Inhibitory Activity on the Proliferation of Tumor Cells (IC50 ± SD) U-87 MG
Procedure: (§1) The compound 8 of the invention was prepared into required concentrations using a culture medium containing 0.1% DMSO.
(§2) The seven tumor cells including MCF-7 (human breast cancer cell, ATCC:HTB-22), SK-BR-3 (human breast cancer cell, ATCC:HTB-30), A549 (human non-small cell lung cancer cell, ATCC:CRM-CCL-185), HCT116 (human colon cancer cell, ATCC:CCL-247), U-118 MG (human astrocytoma, ATCC:HTB-15), U-87 MG (human astrocytoma, ATCC:HTB-14), MDA-MB-468 (human breast cancer cell, ATCC:HTB-132) were all purchased from American Type Culture Collection (ATCC). […]
(§3) MCF-7, SK-BR-3, A549, HCT 116, U-118 MG U-87 MG and MDA-MB-468 cells in logarithmic phase with excellent growth conditions were grafted into a 96-well plate according to a density of 1×10^4 cells/mL, wherein each well was grafted 100 μl. […] A supernate was absorbed out carefully, 150 μl DMSO was added into each hole to dissolve purple residue (formazan), flatly oscillated for 10 min to completely dissolve deposits, then O.D. value (absorbancy) was measured on a microplate reader, wherein the wavelength was 570 nm. […]
(§4) The test was repeated for thrice. A diagram was made by plotting the inhibition rate against the concentration of the compound, and the IC50 (half effective inhibitive concentration) value of the compound 8 of the invention was calculated. […]

[2] = test system: SK-BR-3 (human breast cancer cell); assay: MTT inhibition of proliferation, SK-BR-3; conditions: SK-BR-3, MTT, 48 h, read-out: Inhibitory Activity on the Proliferation of Tumor Cells (IC50 ± SD) SK-BR-3
Procedure: as §1, §2, §3, §4

[3] = test system: U-118 MG (human astrocytoma); assay: MTT inhibition of proliferation, U-118 MG; conditions: 48 h, read-out: Inhibitory Activity on the Proliferation of Tumor Cells (IC50 ± SD) U-118 MG
Procedure: as §1, §2, §3, §4

[4] = test system: MDA-MB-468 (human breast cancer cell); assay: MTT inhibition of proliferation, MDA-MB-468; conditions: MDA-MB-468, MTT, 48 h, read-out: Inhibitory Activity on the Proliferation of Tumor Cells (IC50 ± SD) MDA-MB-468
Procedure: as §1, §2, §3, §4

[5] = test system: MCF-7 (human breast cancer cell); assay: MTT inhibition of proliferation, MCF-7; conditions: MCF7, MCF-7, MTT, 48 h, read-out: Inhibitory Activity on the Proliferation of Tumor Cells (IC50 ± SD) MCF-7
Procedure: as §1, §2, §3, §4

[6] = test system: HCT116 (human colon cancer cell); assay: MTT inhibition of proliferation, HCT 116; conditions: HCT 116, MTT, 48 h, read-out: Inhibitory Activity on the Proliferation of Tumor Cells (IC50 ± SD) HCT 116
Procedure: as §1, §2, §3, §4

[7] = test system: A549 (human non-small cell lung cancer cell); assay: MTT inhibition of proliferation, A549; conditions: 48 h, read-out: Inhibitory Activity on the Proliferation of Tumor Cells (IC50 ± SD) A549
Procedure: as §1, §2, §3, §4

COc1cccc2c1C(=O)c1c(O)c3c(c(O)c1C2=O)C[C@@](O)(C(=O)CO)C[C@@H]3O[C@H]1C[C@H](N)[C@H](O)[C@H](C)O1 [ADR, Adriamycin amycin, reference compound]
IC50 [1]: 82.5 ± 7.15 µM
IC50 [2]: 4.65 ± 0.02 µM
IC50 [3]: 13.5 ± 1.75 µM
IC50 [4]: 2.45 ± 0.31 µM

COc1cc2ncnc(Nc3ccc(NCc4ccc(F)cc4)cc3)c2cc1OCCN1CCCC1 [Compound 8, N-[(4-fluorophenyl)methyl]-4-N-{7-methoxy-6-[(2-pyrrolidin-1-yl)hydroxyethyl]quinazolin-4-yl}phen-1,4-diamine]
IC50 [5]: 16.1 ± 3.47 µM
IC50 [6]: 2.9 ± 1.02 µM
IC50 ([1]; Homo sapiens): 5.45 ± 0.61 µM
IC50 ([2]; Homo sapiens): 10.2 ± 0.86 µM
IC50 ([3]; Homo sapiens): 24.5 ± 2.68 µM
IC50 ([4]; Homo sapiens): 19.4 ± 1.33 µM
IC50 [7]: 5.66 ± 1.01 µM
